Our source for the IC50 values is US20240246954A1, “COMPOSITIONS AND METHODS FOR INHIBITING KRAS” (TheRas, Inc., priority 2021, published 2024).

In experiment [1] the target is T1, Avi-KRAS G12D (1-169) GppNHp/RAF1 RBD-3×FLAG (52-151) (Homo sapiens, UniProt P01116, G12D).
T1 construct: Avi-KRAS G12D (1-169) GppNHp
As to the kind of experiment: HTRF Raf1-KRAS G12D-GppNHp disruption assay. To be noted: 1 h incubation. It counts as biochemical. In outline: (§1)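 HTRF read-out (320 nm excitation, 615 nm emission) after two 1 h room-temperature incubations, first with protein mix, then detection reagents. Ten-point dilution series starting at 100 μM; results given as % activity relative to DMSO at 100%.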

The target of experiment [2] is T2, Avi-KRAS G12D/Q25A (1-169) GppNHp/3×FLAG-PI3KCA (157-299) (Homo sapiens, UniProt P01116, G12D/Q25A).
T2 construct: Avi-KRAS G12D/Q25A (1-169) GppNHp
T2 sequence (P01116 1-169 isoform P01116-2 G12D/Q25A limits assumed): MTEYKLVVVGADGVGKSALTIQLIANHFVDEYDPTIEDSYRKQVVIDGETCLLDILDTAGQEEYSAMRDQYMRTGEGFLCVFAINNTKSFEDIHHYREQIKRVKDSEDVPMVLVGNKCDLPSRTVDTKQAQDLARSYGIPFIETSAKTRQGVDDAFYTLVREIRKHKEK
As to the kind of experiment: HTRF PI3KCA-KRAS G12D/Q25A-GppNHp disruption assay. It is filed as biochemical. To be noted: 1 h incubation. In outline: as §1

The structures appear in SMILES notation.

T1 sequence (P01116 1-169 isoform P01116-2 G12D limits assumed): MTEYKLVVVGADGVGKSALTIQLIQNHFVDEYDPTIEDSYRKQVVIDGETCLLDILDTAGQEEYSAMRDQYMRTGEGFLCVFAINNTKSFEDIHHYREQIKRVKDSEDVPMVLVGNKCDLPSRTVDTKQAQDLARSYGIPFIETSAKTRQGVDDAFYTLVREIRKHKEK

As for `CC(F)(F)c1cc2c(N3CCNCC3)nc(OCC34CCCN3CCC4)nc2c(F)c1-c1ccc(F)c2sc(N)nc12` [Compound 295, 4-(6-(1,1-difluoroethyl)-8-fluoro-4-(piperazin-1-yl)-2-((tetrahydro-1H-pyrrolizin-7a(5H)-yl)methoxy)quinazolin-7-yl)-7-fluorobenzo[d]thiazol-2-amine], the IC50 in experiment [1] and in experiment [2] was 1 to 10 µM each time.

For the molecule `CN1CCC[C@H]1COc1nc(N2C[C@@H]3[C@H]2CCN3C(=O)CN)c2cc(Cl)c(-c3cccc4nc(N)sc34)c(F)c2n1` [Compound 104], the IC50 in experiment [1] and in experiment [2] was 10 to 30 µM in each case.

Turning to `NCC(=O)N1CCN(c2nc(OC[C@]34CCCN3C[C@H](F)C4)nc3c(F)c(-c4ccc(F)c5sc(N)nc45)c(C(F)(F)F)cc23)CC1` [Compound 181], the IC50 in experiment [1] and in experiment [2] was 1 to 10 µM each time.

For the molecule `CN(c1nc(OCC23CCCN2CCC3)nc2c(F)c(-c3ccc(F)c4sc(N)nc34)c(C(F)(F)F)cc12)[C@H]1C[C@@H]2CC[C@H]1N2` (atropisomer, axis not shown) [Compound 270], the IC50 was in the range of 1 to 10 µM in experiment [1] and 10 to 30 µM in experiment [2].

For `CN1CCC(c2nc(NC3CNC3)c3cc(Cl)c(-c4ccc(F)c5sc(N)nc45)c(F)c3n2)CC1` [Compound 102], the IC50 in experiment [1] and in experiment [2] was 10 to 30 µM throughout.

Turning to `Nc1nc2c(-c3c(C(F)(F)F)cc4c(N5CCC6(CNC6)C5)nc(OCC56CCCN5CCC6)nc4c3F)ccc(F)c2s1` [Compound 307], the IC50 is 0.1 to 1 µM in experiment [1] and 1 to 10 µM in experiment [2].

As for `CO[C@@H]1CN(C)C[C@H]1Oc1nc(NC2CNC2)c2cc(Cl)c(-c3ccc(F)c4sc(N)nc34)c(F)c2n1` [Compound 68], the IC50 in experiment [1] and in experiment [2] was 10 to 30 µM each time.

As for `NCC(=O)N1CC[C@@H]2[C@H]1CN2c1nc(OCC23CCCN2CCC3)nc2c(F)c(-c3ccc(F)c4sc(N)nc34)c(-c3ccoc3)cc12` [Compound 153], the concentration for half-maximal inhibition (IC50) in experiment [1] was 1 to 10 µM; in experiment [2], 10 to 30 µM.

For `COc1c(Cl)c(-c2ccc(F)c3sc(N)nc23)c(F)c2ncnc(N3CCNCC3)c12` [Compound 125, 4-(6-chloro-8-fluoro-5-methoxy-4-(piperazin-1-yl)quinazolin-7-yl)-7-fluorobenzo[d]thiazol-2-amine], the IC50 in experiment [1] and in experiment [2] was 10 to 30 µM each time.

Consider `Nc1nc2c(-c3c(OC(F)(F)F)cc4c(N5CCNCC5)nc(OCC56CCCN5CCC6)nc4c3F)ccc(F)c2s1` [Compound 228, 7-fluoro-4-(8-fluoro-4-(piperazin-1-yl)-2-((tetrahydro-1H-pyrrolizin-7a(5H)-yl)methoxy)-6-(trifluoromethoxy)quinazolin-7-yl)benzo[d]thiazol-2-amine], for which the IC50 in experiment [1] and in experiment [2] was 1 to 10 µM each time.

Consider `CC1(Nc2nc(OCC34CCCN3CCC4)nc3c(F)c(-c4ccc(F)c5sc(N)nc45)c(Cl)cc23)CNC1` [Compound 190], for which the IC50 in experiment [1] and in experiment [2] was 1 to 10 µM throughout.

As to `NCC(=O)N1CC[C@@H]2[C@H]1CN2c1nc(OCC23CCCN2CCC3)nc2c(F)c(-c3ccc(F)c4sc(N)nc34)c(C(F)(F)F)cc12` [Compound 202], the values for the IC50 in experiment [1] and in experiment [2] were 0.1 to 1 µM and 1 to 10 µM, respectively.

Take `CN(c1nc(OC[C@@]23CCCN2C[C@H](F)C3)nc2cc(-c3ccc(F)c4sc(N)nc34)c(C(F)(F)F)cc12)[C@H]1CNC[C@@H]1F` [Compound 362]: the IC50 in experiment [1] and in experiment [2] was 10 to 30 µM throughout.

For the molecule `CN1CCC[C@H]1COc1nc(NC2CCCNC2)c2cc(Cl)c(-c3ccc(F)c4sc(N)nc34)c(F)c2n1` (stereo partly drawn) [Compound 99], the figures for the IC50 in experiment [1] and in experiment [2] were 1 to 10 µM and 10 to 30 µM, respectively.

Turning to `CN(c1nc(OC[C@@]23CCCN2C[C@H](F)C3)nc2c(F)c(-c3ccc(F)c4sc(N)nc34)c(C(F)(F)F)cc12)C1C2C[C@H]1CN2` (stereo partly drawn) [Compound 288], the IC50 in experiment [1] was 0.1 to 1 µM; in experiment [2], 1 to 10 µM.

Take `Nc1nc2c(-c3c(C(F)(F)F)cc4c(N5CCNCC5)ncnc4c3F)ccc(F)c2s1` [Compound 65, 7-fluoro-4-(8-fluoro-4-(piperazin-1-yl)-6-(trifluoromethyl)quinazolin-7-yl)benzo[d]thiazol-2-amine]: the IC50 in experiment [1] and in experiment [2] was 10 to 30 µM each time.

Regarding `CN1CCC[C@H]1COc1nc(NCCN)c2cc(Cl)c(-c3cccc4nc(N)cn34)c(F)c2n1` [Compound 93], the IC50 in experiment [1] and in experiment [2] was 10 to 30 µM throughout.

For `CN1CCC[C@H]1COc1nc(N2CCN(C(=O)CN)CC2)c2cc(Cl)c(-c3ccc(F)c4sc(N)nc34)c(F)c2n1` [Compound 108], the IC50 in experiment [1] and in experiment [2] was 10 to 30 µM each time.

Turning to `CN1CCC[C@H]1COc1nc(N2CCNCC2)c2cc(C(F)(F)F)c(-c3ccc(F)c4sc(N)nc34)c(F)c2n1` [Compound 115], the IC50 in experiment [1] and in experiment [2] was 1 to 10 µM in each case.

On to `CN(c1nc(OC[C@@H]2C[C@@H](F)CN2C)nc2c(F)c(-c3ccc(F)c4sc(N)nc34)c(C(F)(F)F)cc12)C1CN(C(=O)CN)C1` [Compound 156], for which the IC50 in experiment [1] and in experiment [2] was 10 to 30 µM in each case.

Take `CN(c1nc(OCC23CCCN2CC(C)(C)C3)nc2c(F)c(-c3ccc(F)c4sc(N)nc34)c(C(F)(F)F)cc12)C1CNC1` (stereo not drawn) [Compound 201]: the IC50 in experiment [1] and in experiment [2] was 10 to 30 µM each time.

As for `CN1CCC[C@H]1COc1nc(NCCN)c2cc(Cl)c(-c3cccc4oc(N)nc34)c(F)c2n1` [Compound 92], the IC50 in experiment [1] and in experiment [2] was 10 to 30 µM in each case.

Consider `CN1C[C@H](F)C[C@H]1COc1nc(NC2CNC2)c2cc(Cl)c(-c3ccc(F)c4sc(N)nc34)c(F)c2n1` [Compound 106], for which the IC50 in experiment [1] and in experiment [2] was 1 to 10 µM in each case.

In the case of `NCC(=O)N1C2CCC1CN(c1nc(OC[C@@]34CCCN3C[C@H](F)C4)nc3c(F)c(-c4ccc(F)c5sc(N)nc45)c(C(F)(F)F)cc13)C2` [Compound 272], the IC50 in experiment [1] lay within 0.1 to 1 µM; in experiment [2] it was 1 to 10 µM.

Consider `Nc1nc2c(-c3c(C(F)(F)F)cc4c(NC5CC6CC[C@@H](C5)N6)nc(OCC56CCCN5CCC6)nc4c3F)ccc(F)c2s1` (stereo partly drawn) [Compound 263], for which the IC50 in experiment [1] and in experiment [2] was 1 to 10 µM in each case.

Consider `CO[C@@H]1C[C@@H](COc2nc(N3CCNCC3)c3cc(Cl)c(-c4ccc(F)c5sc(N)nc45)c(F)c3n2)N(C)C1` [Compound 69], for which the IC50 in experiment [1] and in experiment [2] was 10 to 30 µM each time.

Regarding `CN(c1nc(OC[C@@H]2CC(F)(F)CN2C)nc2c(F)c(-c3ccc(F)c4sc(N)nc34)c(C(F)(F)F)cc12)C1CNC1` [Compound 204], the IC50 in experiment [1] and in experiment [2] was 10 to 30 µM throughout.

Consider `CO[C@@H]1C[C@@H](COc2nc(N3CC4CCC(C3)N4)c3cc(C(F)(F)F)c(-c4ccc(F)c5sc(N)nc45)c(F)c3n2)N(C)C1` [Compound 284], for which the IC50 in experiment [1] and in experiment [2] was 0.1 to 1 µM throughout.

Take `CN1CCC1COc1nc(NC2CNC2)c2cc(Cl)c(-c3ccc(F)c4sc(N)nc34)c(F)c2n1` (stereo not drawn) [Compound 105]: the IC50 in experiment [1] and in experiment [2] was 10 to 30 µM in each case.

As for `Cc1cc2c(N3CCNCC3)nc(OC[C@@H]3CCCN3C)nc2c(F)c1-c1ccc(F)c2sc(N)nc12` [Compound 205], the IC50 in experiment [1] and in experiment [2] was 10 to 30 µM in each case.
